# The NIST ThermoML archive (doi:10.1016/j.jct.2006.12.003)
# Numbers after ± are expanded uncertainties.
# Assays:
# [1] = 293.15 K; 101.33 kPa; Liquid
# [2] = refractive index (Na D-line) (dimensionless); conditions: 293.15 K; 101.33 kPa; Liquid; Standard Abbe refractometry
smiles,measurement,setting,value
Cc1ccccc1 [toluene],mass density,[1],862.2 ± 0.5 kg/m3
same,refractive index,[2],1.4953 ± 0.0007
CC(=O)O [acetic acid],mass density,[1],1049.4 ± 0.3 kg/m3
same,refractive index,[2],1.3713 ± 0.0007
"ClCCCl [1,2-dichloroethane]",mass density,[1],1251 ± 1 kg/m3
same,refractive index,[2],1.4445 ± 0.0007
